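48-hour exposure; five concentrations; linearly interpolated endpoints. At the GI50, growth is halved.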 Activity calls are given as the source filed them. Rule as the data show it: active = GI50 up to about 1.1 µM and inactive = higher.
What was measured:
Experiment in all cases: NCI tumour cell line growth inhibition, 48 h
HCT-116 = test system: HCT-116
HOP-62 = test system: HOP-62
Hs-578T = test system: Hs-578T
IGROV-1 = test system: IGROV-1
KM12 = test system: KM12
MDA-MB-231 = test system: MDA-MB-231
OVCAR-3 = test system: OVCAR-3
SF-268 = test system: SF-268
SF-295 = test system: SF-295
SF-539 = test system: SF-539
TK-10 = test system: TK-10
U-251 = test system: U-251
UACC-257 = test system: UACC-257
UACC-62 = test system: UACC-62
DLD-1 = test system: DLD-1
DMS-114 = test system: DMS-114
KM-20L2 = test system: KM-20L2
LXFL 529 = test system: LXFL 529

Measured: GI50

N=C(N)N/N=C/c1c(-c2ccc(Cl)c([N+](=O)[O-])c2)nc2sc(Cl)cn12
inactive: HCT-116 3.38 µM | HOP-62 3.85 µM | Hs-578T 2.33 µM | IGROV-1 1.65 µM | KM12 2.56 µM | MDA-MB-231 1.97 µM | OVCAR-3 1.51 µM | SF-268 2.68 µM | SF-295 2.2 µM | SF-539 2.3 µM | TK-10 28.8 µM | U-251 2.95 µM | UACC-257 1.91 µM | UACC-62 1.95 µM

O=c1c2cc([N+](=O)[O-])ccc2nc2n1CCCCC2
inactive: HCT-116 > 100 µM | HOP-62 > 100 µM | Hs-578T 43.3 µM | IGROV-1 > 100 µM | KM12 > 100 µM | MDA-MB-231 > 100 µM | OVCAR-3 > 100 µM | SF-268 > 100 µM | SF-295 > 100 µM | SF-539 > 100 µM | TK-10 > 100 µM | U-251 > 100 µM | UACC-257 > 100 µM | UACC-62 > 100 µM

CC(C)(C)OC(=O)N1CCC(NC(=O)NC2CCN(C(=O)OC(C)(C)C)CC2)CC1
inactive: HCT-116 > 100 µM | HOP-62 > 100 µM | Hs-578T > 100 µM | IGROV-1 > 100 µM | KM12 > 100 µM | MDA-MB-231 > 100 µM | OVCAR-3 > 100 µM | SF-268 > 100 µM | SF-295 > 100 µM | SF-539 > 100 µM | TK-10 > 100 µM | U-251 > 100 µM | UACC-257 > 100 µM | UACC-62 > 100 µM

Cc1ccc(-c2cc(=O)c(=O)[nH][nH]2)cc1
inactive: HCT-116 > 100 µM | HOP-62 > 100 µM | Hs-578T 68.4 µM | IGROV-1 45.1 µM | KM12 > 100 µM | MDA-MB-231 > 100 µM | OVCAR-3 > 100 µM | SF-268 > 100 µM | SF-295 > 100 µM | SF-539 > 100 µM | TK-10 > 100 µM | U-251 > 100 µM | UACC-257 > 100 µM | UACC-62 > 100 µM

C/C(=N/O)c1cccc(Nc2nc3ccccc3c3[nH]c4ccccc4c23)c1
inactive: HCT-116 1.16 µM | HOP-62 2.29 µM | Hs-578T 3.24 µM | IGROV-1 3.19 µM | KM12 2.58 µM | MDA-MB-231 2.95 µM | OVCAR-3 2.22 µM | SF-268 1.87 µM | SF-295 1.98 µM | SF-539 5.74 µM | TK-10 4.6 µM | U-251 3.16 µM | UACC-257 6.08 µM | UACC-62 2.28 µM

Cc1ccc(N2C(=O)N(c3ccc(C)cc3)C3(SC=NN3C)C2=O)cc1 (centres undefined)
inactive: DLD-1 67.6 µM | DMS-114 31.2 µM | HCT-116 46.6 µM | HOP-62 > 100 µM | IGROV-1 > 100 µM | KM-20L2 44 µM | KM12 47.6 µM | LXFL 529 64.1 µM | OVCAR-3 19.5 µM | SF-268 > 100 µM | SF-295 47.8 µM | SF-539 > 100 µM | TK-10 66.4 µM | U-251 > 100 µM | UACC-257 38.6 µM | UACC-62 74 µM

N#Cc1c2c(c(Nc3ccc(F)cc3)n3c1nc1ccccc13)CCCC2
inactive: HCT-116 20 µM | HOP-62 29.1 µM | Hs-578T 36.9 µM | IGROV-1 > 59.3 µM | KM12 5.6 µM | MDA-MB-231 > 100 µM | OVCAR-3 > 100 µM | SF-268 > 100 µM | SF-295 8.15 µM | SF-539 > 55.5 µM | TK-10 18.9 µM | U-251 43.8 µM | UACC-257 27.2 µM | UACC-62 > 100 µM

c1ccc(C2=C(c3ccccc3)Sc3nnc(CCCCCCCCc4nnc5n4NC(c4ccccc4)=C(c4ccccc4)S5)n3N2)cc1
inactive: HCT-116 25.8 µM | HOP-62 > 100 µM | Hs-578T 73.5 µM | KM12 44.1 µM | MDA-MB-231 95.9 µM | OVCAR-3 39.8 µM | SF-268 83 µM | SF-295 46.7 µM | SF-539 > 100 µM | TK-10 44.2 µM | U-251 45.2 µM | UACC-257 > 100 µM | UACC-62 46.6 µM

CC(C)(C)[Si](C)(C)O[C@@H](C(=O)OC1C=CCCC1)[C@@H](NC(=O)c1ccccc1)c1ccccc1 (some centres undefined)
inactive: HCT-116 12.6 µM | HOP-62 18.4 µM | Hs-578T 53.6 µM | IGROV-1 37.3 µM | KM12 25.6 µM | MDA-MB-231 19.1 µM | OVCAR-3 16.1 µM | SF-268 69.5 µM | SF-295 18.9 µM | SF-539 61.1 µM | TK-10 16.5 µM | U-251 18.2 µM | UACC-257 19.7 µM | UACC-62 26.8 µM

COC(=O)C1CCC(=O)N1C(c1ccc(OC)cc1)c1ccc2c(c1)OCO2 (centres undefined)
inactive: HCT-116 29 µM | HOP-62 53.2 µM | Hs-578T 36.2 µM | IGROV-1 52 µM | KM12 9.46 µM | MDA-MB-231 > 100 µM | OVCAR-3 50.8 µM | SF-268 53.6 µM | SF-295 17 µM | SF-539 32.9 µM | TK-10 > 100 µM | U-251 39.4 µM | UACC-257 39.1 µM | UACC-62 32.7 µM

O=C1/C(=C/c2ccc(Cl)cc2)Sc2scc(-c3cccc([N+](=O)[O-])c3)[n+]21
inactive: HCT-116 2.06 µM | HOP-62 19.5 µM | Hs-578T 5.48 µM | IGROV-1 2.96 µM | KM12 2.89 µM | MDA-MB-231 5.22 µM | OVCAR-3 8.09 µM | SF-268 2.95 µM | SF-295 11.4 µM | SF-539 2.3 µM | TK-10 2.13 µM | U-251 4.55 µM | UACC-257 4.61 µM | UACC-62 3.16 µM

O=C1NC(=S)NC(=O)C1=Cc1ccc(-c2ccccc2)cc1
inactive: HCT-116 51.3 µM | HOP-62 > 100 µM | Hs-578T 79.4 µM | IGROV-1 > 100 µM | KM12 > 100 µM | MDA-MB-231 99.8 µM | OVCAR-3 > 100 µM | SF-268 > 100 µM | SF-295 > 100 µM | SF-539 > 100 µM | TK-10 > 100 µM | U-251 54.1 µM | UACC-257 > 100 µM | UACC-62 > 100 µM

COc1cc2c(cc1OC)C1=C(C=O)c3ccc(OC)c(OC)c3C(O)N1CC2 (centres undefined)
inactive: HCT-116 30.5 µM | HOP-62 39.7 µM | Hs-578T 23.9 µM | KM12 28.9 µM | MDA-MB-231 16.3 µM | OVCAR-3 39 µM | SF-268 27.5 µM | SF-295 24 µM | SF-539 12.9 µM | TK-10 20.9 µM | U-251 19.2 µM | UACC-257 18.5 µM | UACC-62 13.8 µM

O=C(CC(O)c1cccnc1)CC(O)c1cccnc1 (centres undefined)
inactive: HCT-116 2.04 µM | HOP-62 21.9 µM | Hs-578T 28.4 µM | IGROV-1 14.8 µM | KM12 11.1 µM | MDA-MB-231 14.9 µM | OVCAR-3 14.7 µM | SF-268 25.5 µM | SF-295 15.4 µM | SF-539 21.2 µM | TK-10 > 55.1 µM | U-251 16.5 µM | UACC-257 18.1 µM | UACC-62 16.6 µM

CCOC(=O)c1cc(-c2ccc(OC)c(OC)c2)cn1C
inactive: HCT-116 > 10 µM | HOP-62 > 10 µM | Hs-578T 7.03 µM | IGROV-1 > 10 µM | KM12 > 10 µM | MDA-MB-231 > 10 µM | OVCAR-3 > 10 µM | SF-268 > 10 µM | SF-295 > 10 µM | SF-539 > 10 µM | TK-10 > 10 µM | U-251 > 10 µM | UACC-257 > 10 µM | UACC-62 > 10 µM

COC1(OC)C2(Cl)C(Cl)=C(Cl)C1(Cl)C1COCC12 (centres undefined)
inactive: HOP-62 > 100 µM | Hs-578T > 100 µM | IGROV-1 > 100 µM | KM12 > 100 µM | MDA-MB-231 > 100 µM | OVCAR-3 > 100 µM | SF-268 > 100 µM | SF-295 > 100 µM | SF-539 > 100 µM | TK-10 > 40.7 µM | U-251 > 44.5 µM | UACC-257 > 100 µM | UACC-62 > 100 µM

CC(C)/C(Cl)=N\OC(=O)Nc1ccc(C#N)cc1
inactive: HCT-116 5 µM | HOP-62 17.5 µM | Hs-578T 15.1 µM | IGROV-1 17.6 µM | KM12 15.8 µM | MDA-MB-231 14.6 µM | OVCAR-3 16.8 µM | SF-268 19.2 µM | SF-295 19 µM | SF-539 15.9 µM | TK-10 5.35 µM | U-251 18 µM | UACC-257 12.3 µM | UACC-62 17 µM

COc1ccc(C2C(Cl)C(=O)N2NC(=O)c2ccc(NC(C)=O)cc2)cc1OC (centres undefined)
inactive: HCT-116 > 100 µM | HOP-62 > 100 µM | IGROV-1 > 100 µM | KM12 > 100 µM | LXFL 529 > 100 µM | OVCAR-3 > 100 µM | SF-268 > 100 µM | SF-295 > 100 µM | SF-539 > 100 µM | TK-10 > 100 µM | U-251 > 100 µM | UACC-257 > 100 µM | UACC-62 > 100 µM

Clc1ccc(Cc2nc3cc(Cl)c(Cl)cc3n2CC2CCCN3CCCCC23)cc1Cl (centres undefined)
inactive: HCT-116 3.04 µM | HOP-62 9.14 µM | Hs-578T 3.4 µM | IGROV-1 3.89 µM | KM12 2.19 µM | MDA-MB-231 3.27 µM | OVCAR-3 16 µM | SF-268 3.32 µM | SF-295 3.37 µM | SF-539 1.98 µM | TK-10 6.05 µM | U-251 3.86 µM | UACC-257 2.88 µM | UACC-62 2.28 µM

Reference: ChEMBL document CHEMBL1201862, “PubChem BioAssay data set” (2004)
